Here are results for eleven compounds from ChEMBL document CHEMBL1201862, “PubChem BioAssay data set” (2004).

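Briefly, cells in 96-well plates were exposed to five compound concentrations for 48 h, and endpoints were estimated by linear interpolation. GI50 = concentration required for 50% inhibition of growth.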 Activity calls are given as the source filed them. Rule as the data show it: active = GI50 up to about 1.1 µM and inactive = higher.

Test systems include SW-620; ACHN; SK-MEL-2; IGROV-1; HT-29; OVCAR-8; RXF 393; CCRF-CEM; UO-31; RPMI-8226; NCI-H460; MOLT-4; TK-10; KM12; SK-OV-3; M14; Malme-3M; 786-0; SR.
Common to all, as to assay: NCI anticancer screen, dose series, 48 h

For the compound `C1=CC(=NN=P(c2ccccc2)(c2ccccc2)c2ccccc2)C=C1`, the GI50 with SW-620, in the experiment on ACHN, in the experiment on SK-MEL-2, in the experiment with IGROV-1, in the experiment on HT-29 and in the experiment on OVCAR-8 was > 100 µM (inactive) throughout. The GI50 with RXF 393, in the experiment with CCRF-CEM, with UO-31, in the experiment with RPMI-8226, with NCI-H460 and in the experiment on MOLT-4 was > 100 µM (inactive) in each case. Besides, the GI50 with TK-10, in the experiment with KM12, with SK-OV-3, with M14, in the experiment with Malme-3M and in the experiment on 786-0 was > 100 µM (inactive) throughout.
On to `Oc1cccc2nc3cc(CN4CCOCC4)c(CN4CCOCC4)cc3nc12`, for which the GI50 in the experiment with SW-620 was 57.3 µM (inactive); in the experiment on ACHN it was 47.8 µM (inactive); with SR, 40.2 µM (inactive); in the experiment on SK-MEL-2 it was > 100 µM (inactive); in the experiment on IGROV-1 it was > 100 µM (inactive); with HT-29 it was 48.8 µM (inactive). Also, the GI50 was 44.7 µM (inactive) in the experiment with OVCAR-8; 77.3 µM (inactive) with RXF 393; 44.9 µM (inactive) with CCRF-CEM; 29.6 µM (inactive) in the experiment with UO-31; 54.3 µM (inactive) with NCI-H460; 31.9 µM (inactive) with MOLT-4. For the same compound, the GI50 in the experiment with TK-10 was > 100 µM (inactive); in the experiment with KM12, 67 µM (inactive); in the experiment with SK-OV-3, 50.6 µM (inactive); in the experiment with M14, 18.7 µM (inactive); in the experiment on Malme-3M, 57.5 µM (inactive); with 786-0, 59.7 µM (inactive).
Turning to `O=C1C(=O)N(c2cc(Cl)ccc2Cl)C(=O)C(=O)C1c1nc2ccccc2o1`, the GI50 in the experiment on SW-620, in the experiment with ACHN, in the experiment on SK-MEL-2, in the experiment on IGROV-1, in the experiment with HT-29 and in the experiment with OVCAR-8 was > 100 µM (inactive) each time. In addition, the GI50 with RXF 393 is > 100 µM (inactive); with CCRF-CEM, 30.2 µM (inactive); in the experiment with UO-31, > 70.8 µM (inactive); in the experiment with RPMI-8226 it was > 100 µM (inactive); in the experiment on NCI-H460, > 100 µM (inactive); in the experiment with MOLT-4, 30.1 µM (inactive). Moreover, the GI50 with TK-10 is > 100 µM (inactive); in the experiment with KM12, > 31.6 µM (inactive); with SK-OV-3, > 100 µM (inactive); with M14, > 91.8 µM (inactive); with Malme-3M, > 100 µM (inactive); in the experiment on 786-0, > 100 µM (inactive).
Take `C/C(=C\c1ccccc1)C(O)C(=O)c1nc2ccc(Cl)cc2nc1O` (stereo not given): the GI50 in the experiment on SW-620 is > 100 µM (inactive); with ACHN, > 100 µM (inactive); with SR it was 25.1 µM (inactive); in the experiment with SK-MEL-2, > 100 µM (inactive); with IGROV-1 it was > 100 µM (inactive); in the experiment on HT-29 it was > 100 µM (inactive). Further, the GI50 with OVCAR-8 was > 100 µM (inactive); with CCRF-CEM, 13.6 µM (inactive); with UO-31, > 100 µM (inactive); in the experiment with RPMI-8226, 12.5 µM (inactive); with NCI-H460, > 100 µM (inactive); with MOLT-4, 48.3 µM (inactive). For the same compound, the GI50 in the experiment with TK-10, in the experiment with KM12, with SK-OV-3, in the experiment with M14, in the experiment on Malme-3M and in the experiment with 786-0 was > 100 µM (inactive) throughout.
In the case of `N=c1oc2cc(O)c(O)cc2cc1C(N)=O`, the GI50 in the experiment with SW-620, with ACHN, with SK-MEL-2, with IGROV-1, in the experiment with HT-29 and with OVCAR-8 was > 100 µM (inactive) each time. The GI50 in the experiment with RXF 393 is > 100 µM (inactive); in the experiment on CCRF-CEM, 33 µM (inactive); with UO-31, > 100 µM (inactive); with RPMI-8226 it was > 100 µM (inactive); in the experiment with NCI-H460, > 100 µM (inactive); in the experiment on MOLT-4, 84.9 µM (inactive). For the same compound, the GI50 in the experiment on TK-10 was > 100 µM (inactive); in the experiment with KM12, > 100 µM (inactive); with SK-OV-3 it was > 100 µM (inactive); in the experiment with M14 it was > 100 µM (inactive); in the experiment with Malme-3M, > 100 µM (inactive); in the experiment on 786-0, 43.5 µM (inactive).
As for `CC(=O)NNc1nc(C)c(C(=O)NNC(=O)C(=O)Nc2ccc(Cl)cc2)s1`, the GI50 with SW-620 was 54.6 µM (inactive); in the experiment on ACHN, 54.6 µM (inactive); in the experiment on SR, 68.5 µM (inactive); in the experiment with SK-MEL-2, > 100 µM (inactive); in the experiment with IGROV-1, > 100 µM (inactive); in the experiment on HT-29 it was > 100 µM (inactive). Also, the GI50 in the experiment on OVCAR-8 was > 100 µM (inactive); with CCRF-CEM, 25.3 µM (inactive); with UO-31 it was > 100 µM (inactive); in the experiment on RPMI-8226 it was > 100 µM (inactive); in the experiment with NCI-H460, > 100 µM (inactive); in the experiment with MOLT-4, 37.4 µM (inactive). Moreover, the GI50 in the experiment on TK-10, with KM12, with SK-OV-3, with M14, in the experiment with Malme-3M and in the experiment on 786-0 was > 100 µM (inactive) in each case.
For `O=C(O)C1Cc2[nH]c3ccccc3c2C2CCCC12` (stereo not given), the GI50 with SW-620, in the experiment with ACHN, in the experiment on SR, in the experiment on SK-MEL-2, in the experiment with IGROV-1 and in the experiment on OVCAR-8 was > 100 µM (inactive) each time. For the same compound, the GI50 in the experiment on CCRF-CEM, with UO-31, in the experiment with NCI-H460, in the experiment with MOLT-4, in the experiment on TK-10 and with KM12 was > 100 µM (inactive) throughout. The GI50 in the experiment with SK-OV-3, with M14, in the experiment on Malme-3M and with 786-0 was > 100 µM (inactive) throughout.
As for `O=C(/C=C/c1ccccc1O)c1cccs1`, the GI50 in the experiment on SW-620, in the experiment on ACHN, with SR, in the experiment on SK-MEL-2, with IGROV-1 and in the experiment on HT-29 was > 100 µM (inactive) in each case. For the same compound, the GI50 in the experiment with OVCAR-8, with RXF 393, with CCRF-CEM, in the experiment with UO-31, with NCI-H460 and in the experiment on MOLT-4 was > 100 µM (inactive) throughout. For the same compound, the GI50 in the experiment on TK-10, in the experiment on KM12, in the experiment with SK-OV-3, in the experiment on M14, in the experiment with Malme-3M and with 786-0 was > 100 µM (inactive) in each case.
In the case of `COc1cc2ccc3c4c(OC)cc(OC)c(OC)c4c([O-])[n+](C)c3c2cc1OC`, the GI50 is > 24.8 µM (inactive) in the experiment with ACHN; 0.759 µM (active) in the experiment with SR; 21.9 µM (inactive) with SK-MEL-2; 6.98 µM (inactive) in the experiment with IGROV-1; 6.47 µM (inactive) with HT-29; 45.3 µM (inactive) in the experiment with OVCAR-8. Besides, the GI50 in the experiment with UO-31 is > 34 µM (inactive); with RPMI-8226, 0.368 µM (active); in the experiment on MOLT-4, 1.67 µM (inactive); in the experiment with TK-10, > 40.3 µM (inactive); in the experiment on KM12, 4.37 µM (inactive); with SK-OV-3, > 33 µM (inactive). The GI50 in the experiment on Malme-3M was 17.5 µM (inactive); in the experiment with 786-0, > 100 µM (inactive).
As to `O=C1c2cc3c(cc2[C@@H]2C(O)[C@H]4O[C@H]4C4CCN1C42)OCO3` (stereo not given in full), the GI50 with SW-620, in the experiment on ACHN, in the experiment on SR, in the experiment on SK-MEL-2, with IGROV-1 and with HT-29 was > 37.5 µM (inactive) each time. The GI50 in the experiment with OVCAR-8, in the experiment with CCRF-CEM, in the experiment with UO-31, with RPMI-8226, in the experiment with NCI-H460 and in the experiment on MOLT-4 was > 37.5 µM (inactive) throughout. The GI50 in the experiment on TK-10, in the experiment on KM12, in the experiment with SK-OV-3, in the experiment on M14 and in the experiment on Malme-3M was > 37.5 µM (inactive) throughout.
For the compound `O=C(c1ccccc1)c1c(CC(O)c2cccnc2)n(C(=O)c2ccccc2)c2ccccc12` (stereo not given), the GI50 is 26.6 µM (inactive) in the experiment on SW-620; 22.9 µM (inactive) in the experiment on ACHN; 13.5 µM (inactive) in the experiment with SR; 20.3 µM (inactive) in the experiment with SK-MEL-2; 19.1 µM (inactive) in the experiment on IGROV-1; 18.8 µM (inactive) with HT-29. Moreover, the GI50 was 25.3 µM (inactive) with OVCAR-8; 22.5 µM (inactive) in the experiment with CCRF-CEM; 14.1 µM (inactive) in the experiment on UO-31; 15.8 µM (inactive) with RPMI-8226; 16.9 µM (inactive) in the experiment on NCI-H460; 17.9 µM (inactive) in the experiment on MOLT-4. The GI50 with TK-10 is 26.9 µM (inactive); with KM12, 18.9 µM (inactive); with M14, 19.1 µM (inactive); with Malme-3M, 23.8 µM (inactive); in the experiment with 786-0, 33.2 µM (inactive).
